Test results reported in ChEMBL document CHEMBL5625249, “Optimization and antifungal activity of quinoline derivatives linked to chalcone moiety combined with FLC against Candida albicans” (Eur J Med Chem, 2023).

Legend:
Type in all cases: functional
Candida albicans [1] = test: Antifungal activity against FLC-sensitive Candida albicans SC5314 measured after 24 hrs by microdilution method
Candida albicans [2] = test: Synergistic antifungal activity against FLC-sensitive Candida albicans SC5314 measured after 24 hrs in presence of fluconazole by microdilution method
Candida albicans [3] = test: Antifungal activity against Clinical FLC-resistant Candida albicans 23 measured after 24 hrs by microdilution method
Candida albicans [4] = test: Synergistic antifungal activity against Clinical FLC-resistant Candida albicans 23 measured after 24 hrs in presence of fluconazole by microdilution method
Candida albicans [5] = test: Synergistic antifungal activity against FLC-sensitive Candida albicans SC5314 assessed as fractional inhibitory concentration index measured after 24 hrs in presence of fluconazole by microdilution method
Candida albicans [6] = test: Synergistic antifungal activity against Clinical FLC-resistant Candida albicans 23 assessed as fractional inhibitory concentration index measured after 24 hrs in presence of fluconazole by microdilution method

CN1CCN(c2nc3ccccc3cc2/C=C/C(=O)c2ccc(N3CCN(C(=O)c4ccc(Cl)cc4)CC3)cc2)CC1
MIC80 (Candida albicans [1]): > 40 µg/mL | MIC80 (Candida albicans [2]): 0.64 µg/mL | MIC80 (Candida albicans [3]): > 40 µg/mL | MIC80 (Candida albicans [4]): 1.49 µg/mL | fractional inhibitory concentration index (FICI) (Candida albicans [5]): 0.12 | fractional inhibitory concentration index (FICI) (Candida albicans [6]): 0.04

CN1CCN(c2nc3ccccc3cc2/C=C/C(=O)c2ccc(N3CCN(S(=O)(=O)C4CC4)CC3)cc2)CC1
MIC80 (Candida albicans [1]): > 40 µg/mL | MIC80 (Candida albicans [2]): 4.93 µg/mL | MIC80 (Candida albicans [3]): > 40 µg/mL | MIC80 (Candida albicans [4]): 6.03 µg/mL | fractional inhibitory concentration index (FICI) (Candida albicans [5]): 0.91 | fractional inhibitory concentration index (FICI) (Candida albicans [6]): 0.15

C=C(C)C(=O)N1CCN(c2ccc(C(=O)/C=C/c3cc4ccccc4nc3N3CCN(C)CC3)cc2)CC1
MIC80 (Candida albicans [1]): > 40 µg/mL | MIC80 (Candida albicans [2]): 3.71 µg/mL | MIC80 (Candida albicans [3]): > 40 µg/mL | MIC80 (Candida albicans [4]): 4.93 µg/mL | fractional inhibitory concentration index (FICI) (Candida albicans [5]): 0.69 | fractional inhibitory concentration index (FICI) (Candida albicans [6]): 0.12

CN1CCN(c2nc3ccccc3cc2/C=C/C(=O)c2ccc(N3CCN(S(=O)(=O)c4ccc(C(F)(F)F)cc4)CC3)cc2)CC1
MIC80 (Candida albicans [1]): > 40 µg/mL | MIC80 (Candida albicans [2]): > 40 µg/mL | MIC80 (Candida albicans [3]): > 40 µg/mL | MIC80 (Candida albicans [4]): 1.15 µg/mL | fractional inhibitory concentration index (FICI) (Candida albicans [6]): 0.03

Cc1ccc(S(=O)(=O)N2CCN(c3ccc(C(=O)/C=C/c4cc5ccccc5nc4N4CCN(C)CC4)cc3)CC2)cc1
MIC80 (Candida albicans [1]): > 40 µg/mL | MIC80 (Candida albicans [2]): > 40 µg/mL | MIC80 (Candida albicans [3]): > 40 µg/mL | MIC80 (Candida albicans [4]): 8.08 µg/mL | fractional inhibitory concentration index (FICI) (Candida albicans [6]): 0.2

CN1CCN(c2nc3ccccc3cc2/C=C/C(=O)c2ccc(N3CCN(S(=O)(=O)c4ccc([N+](=O)[O-])cc4)CC3)cc2)CC1
MIC80 (Candida albicans [1]): > 40 µg/mL | MIC80 (Candida albicans [2]): 17.8 µg/mL | MIC80 (Candida albicans [3]): > 40 µg/mL | MIC80 (Candida albicans [4]): > 40 µg/mL | fractional inhibitory concentration index (FICI) (Candida albicans [5]): 3.3

C=CC(=O)N1CCN(c2ccc(C(=O)/C=C/c3cc4ccccc4nc3N3CCN(C)CC3)cc2)CC1
MIC80 (Candida albicans [1]): > 40 µg/mL | MIC80 (Candida albicans [2]): 4.11 µg/mL | MIC80 (Candida albicans [3]): > 40 µg/mL | MIC80 (Candida albicans [4]): 26.4 µg/mL | fractional inhibitory concentration index (FICI) (Candida albicans [5]): 0.76 | fractional inhibitory concentration index (FICI) (Candida albicans [6]): 0.66

CN1CCN(c2nc3ccccc3cc2/C=C/C(=O)c2ccc(N3CCN(CC(=O)c4ccc(Cl)c(Cl)c4)CC3)cc2)CC1
MIC80 (Candida albicans [1]): > 40 µg/mL | MIC80 (Candida albicans [2]): 17 µg/mL | MIC80 (Candida albicans [3]): > 40 µg/mL | MIC80 (Candida albicans [4]): 36.2 µg/mL | fractional inhibitory concentration index (FICI) (Candida albicans [5]): 3.14 | fractional inhibitory concentration index (FICI) (Candida albicans [6]): 0.91

CN1CCN(c2nc3ccccc3cc2/C=C/C(=O)c2ccc(N3CCN(S(=O)(=O)c4ccc(Cl)c(C(F)(F)F)c4)CC3)cc2)CC1
MIC80 (Candida albicans [1]): > 40 µg/mL | MIC80 (Candida albicans [2]): 5.31 µg/mL | MIC80 (Candida albicans [3]): > 40 µg/mL | MIC80 (Candida albicans [4]): 26.8 µg/mL | fractional inhibitory concentration index (FICI) (Candida albicans [5]): 0.98 | fractional inhibitory concentration index (FICI) (Candida albicans [6]): 0.67

CN1CCN(c2nc3ccccc3cc2/C=C/C(=O)c2ccc(N3CCNCC3)cc2)CC1
MIC80 (Candida albicans [1]): > 40 µg/mL | MIC80 (Candida albicans [2]): 2.56 µg/mL | MIC80 (Candida albicans [3]): > 40 µg/mL | MIC80 (Candida albicans [4]): 24 µg/mL | fractional inhibitory concentration index (FICI) (Candida albicans [5]): 0.47 | fractional inhibitory concentration index (FICI) (Candida albicans [6]): 0.6

CN1CCN(c2nc3ccccc3cc2/C=C/C(=O)c2ccc(N3CCN(C(=O)c4ccc(F)cc4)CC3)cc2)CC1
MIC80 (Candida albicans [1]): > 40 µg/mL | MIC80 (Candida albicans [2]): 0.88 µg/mL | MIC80 (Candida albicans [3]): > 40 µg/mL | MIC80 (Candida albicans [4]): 3.43 µg/mL | fractional inhibitory concentration index (FICI) (Candida albicans [5]): 0.16 | fractional inhibitory concentration index (FICI) (Candida albicans [6]): 0.09

CN1CCN(c2nc3ccccc3cc2/C=C/C(=O)c2ccc(N3CCN(CC(=O)c4ccc(F)cc4)CC3)cc2)CC1
MIC80 (Candida albicans [1]): > 40 µg/mL | MIC80 (Candida albicans [2]): 6.74 µg/mL | MIC80 (Candida albicans [3]): > 40 µg/mL | MIC80 (Candida albicans [4]): > 40 µg/mL | fractional inhibitory concentration index (FICI) (Candida albicans [5]): 1.25

CN1CCN(c2nc3ccccc3cc2/C=C/C(=O)c2ccc(N3CCN(S(=O)(=O)c4ccc(OC(F)(F)F)cc4)CC3)cc2)CC1
MIC80 (Candida albicans [1]): > 40 µg/mL | MIC80 (Candida albicans [2]): 4.31 µg/mL | MIC80 (Candida albicans [3]): > 40 µg/mL | MIC80 (Candida albicans [4]): 4.05 µg/mL | fractional inhibitory concentration index (FICI) (Candida albicans [5]): 0.8 | fractional inhibitory concentration index (FICI) (Candida albicans [6]): 0.1

CN1CCN(c2nc3ccccc3cc2/C=C/C(=O)c2ccc(N3CCN(S(=O)(=O)c4ccc(F)cc4)CC3)cc2)CC1
MIC80 (Candida albicans [1]): > 40 µg/mL | MIC80 (Candida albicans [2]): 18.3 µg/mL | MIC80 (Candida albicans [3]): > 40 µg/mL | MIC80 (Candida albicans [4]): 1.14 µg/mL | fractional inhibitory concentration index (FICI) (Candida albicans [5]): 3.39 | fractional inhibitory concentration index (FICI) (Candida albicans [6]): 0.03

CN1CCN(c2nc3ccccc3cc2/C=C/C(=O)c2ccc(N3CCN(Cc4ccc(F)c(F)c4)CC3)cc2)CC1
MIC80 (Candida albicans [1]): > 40 µg/mL | MIC80 (Candida albicans [2]): 2.06 µg/mL | MIC80 (Candida albicans [3]): > 40 µg/mL | MIC80 (Candida albicans [4]): 6.18 µg/mL | fractional inhibitory concentration index (FICI) (Candida albicans [5]): 0.38 | fractional inhibitory concentration index (FICI) (Candida albicans [6]): 0.15

CN1CCN(c2nc3ccccc3cc2/C=C/C(=O)c2ccc(N3CCN(C(=O)CCCl)CC3)cc2)CC1
MIC80 (Candida albicans [1]): > 40 µg/mL | MIC80 (Candida albicans [2]): > 40 µg/mL | MIC80 (Candida albicans [3]): > 40 µg/mL | MIC80 (Candida albicans [4]): > 40 µg/mL

COc1ccc(C(=O)CN2CCN(c3ccc(C(=O)/C=C/c4cc5ccccc5nc4N4CCN(C)CC4)cc3)CC2)cc1OC
MIC80 (Candida albicans [1]): > 40 µg/mL | MIC80 (Candida albicans [2]): 5.5 µg/mL | MIC80 (Candida albicans [3]): > 40 µg/mL | MIC80 (Candida albicans [4]): 28.1 µg/mL | fractional inhibitory concentration index (FICI) (Candida albicans [5]): 1.01 | fractional inhibitory concentration index (FICI) (Candida albicans [6]): 0.7

CN1CCN(c2nc3ccccc3cc2/C=C/C(=O)c2ccc(N3CCN(S(C)(=O)=O)CC3)cc2)CC1
MIC80 (Candida albicans [1]): > 40 µg/mL | MIC80 (Candida albicans [2]): 28.1 µg/mL | MIC80 (Candida albicans [3]): > 40 µg/mL | MIC80 (Candida albicans [4]): 22.5 µg/mL | fractional inhibitory concentration index (FICI) (Candida albicans [5]): 5.2 | fractional inhibitory concentration index (FICI) (Candida albicans [6]): 0.56

COC(=O)CN1CCN(c2ccc(C(=O)/C=C/c3cc4ccccc4nc3N3CCN(C)CC3)cc2)CC1
MIC80 (Candida albicans [1]): > 40 µg/mL | MIC80 (Candida albicans [2]): 14.1 µg/mL | MIC80 (Candida albicans [3]): > 40 µg/mL | MIC80 (Candida albicans [4]): > 40 µg/mL | fractional inhibitory concentration index (FICI) (Candida albicans [5]): 2.6

CN1CCN(c2nc3ccccc3cc2/C=C/C(=O)c2ccc(N3CCN(C(=O)/C=C/c4ccccc4)CC3)cc2)CC1
MIC80 (Candida albicans [1]): > 40 µg/mL | MIC80 (Candida albicans [2]): > 40 µg/mL | MIC80 (Candida albicans [3]): > 40 µg/mL | MIC80 (Candida albicans [4]): 5.83 µg/mL | fractional inhibitory concentration index (FICI) (Candida albicans [6]): 0.15

CC(=O)N1CCN(c2ccc(C(=O)/C=C/c3cc4ccccc4nc3N3CCN(C)CC3)cc2)CC1
MIC80 (Candida albicans [1]): > 40 µg/mL | MIC80 (Candida albicans [2]): > 40 µg/mL | MIC80 (Candida albicans [3]): > 40 µg/mL | MIC80 (Candida albicans [4]): > 40 µg/mL

CN1CCN(c2nc3ccccc3cc2/C=C/C(=O)c2ccc(N3CCN(Cc4ccc(C#N)cc4)CC3)cc2)CC1
MIC80 (Candida albicans [1]): > 40 µg/mL | MIC80 (Candida albicans [2]): 4.73 µg/mL | MIC80 (Candida albicans [3]): > 40 µg/mL | MIC80 (Candida albicans [4]): 5.4 µg/mL | fractional inhibitory concentration index (FICI) (Candida albicans [5]): 0.88 | fractional inhibitory concentration index (FICI) (Candida albicans [6]): 0.14

Cc1ccc(C(=O)CN2CCN(c3ccc(C(=O)/C=C/c4cc5ccccc5nc4N4CCN(C)CC4)cc3)CC2)cc1
MIC80 (Candida albicans [1]): > 40 µg/mL | MIC80 (Candida albicans [2]): 5.68 µg/mL | MIC80 (Candida albicans [3]): > 40 µg/mL | MIC80 (Candida albicans [4]): 33.4 µg/mL | fractional inhibitory concentration index (FICI) (Candida albicans [5]): 1.05 | fractional inhibitory concentration index (FICI) (Candida albicans [6]): 0.83
